Data set [1] relates to Vibrio parahaemolyticus. In words: Use of fluorogenic protease substrate to detect Vibrio parahaemolyticus (cleavage by trypsin-like enzyme). The format is cell-based. The conditions noted are these: Vibrio parahaemolyticus cells, 1 mM EDTA, 50 mM phosphate buffer pH 7.2, incubated overnight; with vs without cells. The method, then: Vibrio parahaemolyticus used in these experiments was a quality control strain for the Transport Swab System of Becton Dickinson Microbiology Systems (Cockeysville, Md.). It was purchased from American Tissue Culture Collection (ATCC accession no. 49398). Cells were grown at 37° C. in nutrient broth with 3 percent sodium chloride. Ten ml of overnight culture was centrifuged. Broth was disposed and 3 ml of assay buffer added (1 mM EDTA, 50 mM phosphate buffer at pH 7.2) containing 50 μl of dual labeled conjugate of formula I, 1000 dilution (see Example 1, procedure for making labeled peptide). To ensure complete cleavage the reaction mixture was incubated overnight. Fluorescence intensity of cuvettes with and without cells was measured, (tracings C and D, respectively).

Data set [2] in a line: Fluorescence of the intact dual-labeled conjugate versus singly labeled counterpart. Format: physicochemical. An excerpt:
SEQ ID NO. 1 Val-Pro-Arg-Gly-Lys was synthesized by GeneMed Biotechnologies (South San Francisco, Calif.) and purified on reverse phase high performance liquid chromatography (HPLC). Its chemical identity was confirmed by Fast Atom Bombardment (FAB) mass spectroscopy and amino acid analysis. The peptide was reacted overnight with tetramethylrhodamine succimidyl ester in 0.1M sodium bicarbonate, pH 8.3. The reaction mixture was purified on reversed phase HPLC (C-18 column, particle size 15 μm, Waters Corp., Milford, Mass.). All chemically reactive dyes were purchased from Molecular Probes, Eugene, Oreg. The dye-peptide conjugate had the chemical structure of SEQ ID NO. 2 TMR-Val-Pro-Arg-Gly-Lys-TMR (designated T-VPRGK-T in FIG. 2) as shown in Formula I, below. A composite gradient of acetonitrile (ACN) in water was used to purify this conjugate. In a typical elution, the acetonitrile content was increased from 15% to 30% during the initial 15 minutes, followed by a 10-minute isocratic elution at 30% ACN, a 5-minute gradient to 50%, then 5-minute isocratic elution at 50% ACN. All solvents contained 0.1% trifluoroacetic acid. The molecular weight of the purified conjugate, determined by FAB mass spectroscopy, was 1379 which was the calculated molecular mass based on the elemental composition of C74H85N13O14.

Regarding “TMR-Val-Pro-Arg-Gly-Lys-TMR (XPRGX; not fully specified; TMR dye at both ends) [T-VPRGK-T]”, in data set [1], the “change in fluorescence on cleavage by the trypsin-like enzyme” value is on record as “increase in fluorescence”. Further, the “fluorescence of dual-labeled conjugate versus singly labeled counterpart” value in data set [2] was “substantially lower fluorescence than its singly labeled counterpart”.

For the origin of these results see patent publication US7256012B2, “Fluorogenic protease substrates based on dye-dimerization” (3M Innovative Properties Company, priority 1997, dated 2007).
